Like-named read-outs stand apart in the source and are kept apart here.

Experiment [1] concerns Acetylcholinesterase (AChE). The protocol: Test compounds alone or in association in mixture were solved at different concentrations in medium and then pre-incubated with kit of measure AchE (Promega, France).
Test compounds alone or in association in the NSP01-001-E001 prepared according to example 4 were solved at different concentrations in medium and then pre-incubated with kit of measure AchE (Promega, France).
Kit achetylcholinesterase (Abcam ref ab138871) was used. […] A 10-minutes incubation time was applied. The absorbance was assessed at 410 nm.
The activity of the AchE was evaluated versus an AchE activity standard curve.
Data were expressed in percentage of control conditions (no compound=100%). All values were expressed as mean+/−SEM (s.e.mean) (n=6 wells per condition per culture). Graphs and statistical analyses on the different conditions (ANOVA followed by PLSD Fisher's test when allowed, were performed using GraphPad Prism software version 5.0).

Experiment [2] concerns primary cortical neurons injured by glutamate. As to the kind of experiment: glutamate toxicity on primary cortical neurons (neuron survival, neurite network). The class given is cell-based, rat. Conditions: for effect on glutamate toxicity: at the lowest concentrations; for non-active concentration: see example 2. The protocol:
Rat cortical neurons were cultured as described by Singer et al., 1999 [J. Neuroscience 19(7), 2455-2463] and Callizot et al. 2013 [J. Neurosc. Res. 91(5), 706-716].
Briefly, pregnant females (Wistar; JanvierLabs, St Berthevin, France) at 15 days of gestation were killed by cervical dislocation. Foetuses were collected and immediately placed in ice-cold L15 Leibovitz medium (Pan Biotech, Aidenbach, Germany, Batch: 4120413) with a 2% penicillin (10,000 U/ml) and streptomycin (10 mg/ml) solution (PS; Pan Biotech, Aidenbach, Germany) and 1% bovine serum albumin (BSA; Pan Biotech, Aidenbach, Germany). Cortex was treated for 20 min at 37° C. with a trypsin-EDTA (Pan Biotech, Aidenbach, Germany) solution at a final concentration of 0.05% trypsin and 0.02% EDTA. The dissociation was stopped by addition of Dulbecco's modified Eagle's medium (DMEM) with 4.5 g/liter of glucose (Pan Biotech, Aidenbach, Germany), containing DNAse I grade II (final concentration 0.5 mg/ml; Pan Biotech, Germany) and 10% fetal calf serum (FCS; Invitrogen, Cergy Pointoise, France). Cells were mechanically dissociated by three forced passages through the tip of a 10-ml pipette. Cells were then centrifuged at 515 g for 10 min at 4° C. The supernatant was discarded, and the pellet was resuspended in a defined culture medium consisting of Neurobasal medium (Invitrogen, Cergy Pointoise, France) with a 2% solution of B27 supplement (Invitrogen, Cergy Pointoise, France), 2 mmol/liter of L-glutamine (Pan Biotech, Aidenbach, Germany), 2% of PS solution, and 10 ng/ml of brain-derived neurotrophic factor (BDNF; Pan Biotech, Aidenbach, Germany). Viable cells were counted in a Neubauer cytometer, using the trypan blue exclusion test. The cells were seeded at a density of 30,000 per well in 96-well plates precoated with poly-L-lysine (Corning Biocoat, Tewksbury, USA) and were cultured at 37° C. in an air (95%)-CO2 (5%) incubator. The medium was changed every 2 days.
On day 13, the cultures were exposed for 20 minutes to glutamate 40 μM in the absence or presence of Huperzia serrata extracts. Then the cells were washed out and new fresh medium containing or not Huperzia serrata extracts was added for another 48 hours.
The cells were then fixed by a cold solution ethanol/acetic acid (95:5 v/v) for 5 minutes at −20° C. After permeabilization with 0.1% of saponin (Sigma), cells were incubated for 2 hours with mouse monoclonal antibody against microtubule-associated-protein 2 (MAP 2; Sigma) at dilution of 1/400 in PBS containing 1% foetal calf serum (Invitrogen) and 0.1% of saponin.
Neuron survival assessment: For each condition 6 wells were assessed, 20 pictures per well were taken using InCell Analyzer™ 1000 (GE Healthcare) with 20× magnification to assess cell bodies (MAP 2 staining). Analysis of picture was done using Developer software (GE Healthcare), the number of neurons per picture was recorded. A mean of neuron number of the 20 pictures was automatically calculated per well, then one data was provided per well (total of 6 raw data were provided per condition).
Neurite network length assessment: For each condition 6 wells were assessed, 20 pictures per well were taken using InCell Analyzer™ 1000 with 20× magnification (20 pictures at X20 representing ˜80% of the total well surface), to assess MAP-2 staining. Analysis of picture was done using Developer software, the total neurite length per picture was recorded. A mean neurite length of the 20 pictures was automatically calculated per well, then one data was provided per well (total of 6 raw data were provided per condition).
The protocol used in these assays is the same as described in example 1. After 13 days of neuron culture, the candidate compounds were solved in DMSO and diluted in culture medium. […]

For experiment [3], the system named is Alzheimer's disease patients. Conditions: particularly at a daily dose of 300-500 μg; cited from earlier work.

For the compound `O=C(O)/C=C/c1ccc(O)c(O)c1` [CA, caffeic acid], the “inhibition of AChE” value in experiment [1] (50 pM) was approximately 8%. The “effect on glutamate toxicity” value in experiment [2] is given as “little or no effect”. Besides, the neurite network result in experiment [2] (glutamate 40 μM, 20 min, 1 μM and 5 μM) is recorded as “moderate effect”. The non-active concentration in experiment [2] (glutamate 40 μM, 20 min) is 500 pM.
On to `COc1cc(/C=C/C(=O)O)ccc1O` [FA, ferulic acid], for which, in experiment [1] (100 pM), the “inhibition of AChE” value is recorded as approximately 8%. Further, the “effect on glutamate toxicity” value in experiment [2] was “little or no effect”. Besides, in experiment [2] (glutamate 40 μM, 20 min, 10 μM and 100 μM), the neurite network entry was “significant protective effect”. This compound showed a non-active concentration in experiment [2] (glutamate 40 μM, 20 min) of 10000 pM.
With `C/C=C1\[C@H]2C=C(C)C[C@]1(N)c1ccc(=O)[nH]c1C2` [HA, huperzine A, reference compound], the “effect on glutamate toxicity” value in experiment [2] is “little or no effect”. In experiment [2] (glutamate 40 μM, 20 min), this compound had a lowest active dose of 1 nM and a non-active concentration of 10 pM. For the same compound, in experiment [2] (glutamate 40 μM, 20 min, 10 nM), the neurite network was more than 90% and the neuron survival is reported as 94%. Also, the tolerability and benefit result in experiment [3] was “well-tolerated and beneficial”.

Values taken from patent publication US10596166B2, “Combination composition comprising huperzine” (priority 2015, dated 2020).
